From patent publication US6875743B1, “Cell adhesion inhibitors” (Biogen, Inc., priority 1996, dated 2005)
Numbered stars: 1 amine (or outer) side, 2 acyl side, 3 side chain; on linkers, the order of the positions; unused ones are H or OH. Square brackets hold non-standard residues; d marks the D form. Peptide text beside a SMILES is read from it. * marks the point of attachment. Quinaldoyl = O=C(c1ccc2ccccc2n1)*; X1 = O=C(Cc1ccc(N[*:1])cc1)[*:2]; NH(2-Me-phenyl) = Cc1ccccc1N*; Nle = CCCC[CH](N)C(=O)O; Nva = CCC[CH](N)C(=O)O; PhAc = O=C(Cc1ccccc1)*; Boc = CC(C)(C)OC(=O)*; CO = O=C([*:1])[*:2]; NHPh = c1ccc(N*)cc1

Biological target: T1, VLA4 (Homo sapiens, UniProt P05556+P13612)
T1 construct: endogenous in cells; host or cells: Ramos cells
Assay: Inhibition of VLA4-dependent adhesion to BSA-CS1
Type: cell-based
Conditions: not given
Source text: For example, the cell adhesion inhibitory activity of these compounds may be measured by determining the concentration of inhibitor required to block the binding of VLA-4-expressing cells to fibronectin- or CS1-coated plates. In this assay microtiter wells are coated with either fibronectin (containing the CS-1 sequence) or CS-1. If CS-1 is used, it must be conjugated to a carrier protein, such as bovine serum albumin, in order to bind to the wells. Once the wells are coated, varying concentrations of the test compound are then added together with appropriately labelled, VLA-4-expressing cells. Alternatively, the test compound may be added first and allowed to incubate with the coated wells prior to the addition of the cells. The cells are allowed to incubate in the wells for at least 30 minutes. Following incubation, the wells are emptied and washed. Inhibition of binding is measured by quantitating the fluorescence or radioactivity bound to the plate for each of the various concentrations of test compound, as well as for controls containing no test compound.
VLA-4-expressing cells that may be utilized in this assay include Ramos cells, Jurkat cells, A375 melanoma cells, as well as human peripheral blood lymophocytes (PBLs). The cells used in this assay may be fluorescently or radioactively labelled.
This assay was used to assess the potency of VLA4-directed inhibitory compounds of this invention.
We dissolved BSA-SMCC (Pierce Chemical, Rockford, Ill.; Catalog #77115) in H2O at a concentration of 10 mg/mL. [SEQ ID NO:4]: […](“Cys-Tyr-CS1 peptide”), which we synthesized by conventional solid phase chemistry and purified by HPLC, was dissolved in 10 mM HEPES pH 5, 50 mM NaCl and 0.1 mM EDTA also at a concentration of 10 mg/mL. We then mixed 500 μL of BSA-SMCC, 250 μL of Cys-Tyr-CS1 peptide and 75 μL of 1 mM HEPES pH 7.5 and allowed the conjugation reaction to proceed for 30 minutes. We stopped the reaction by adding 1 μL of beta-mercaptoethanol. Samples were analyzed for cross-linking by SDS-PAGE.
We coated the wells of a Linbro titertek polystyrene 96-well flat bottom plate (Flow Laboratories, Maclean, Va.; catalog #76-231-05) with 100 μL of the above-described BSA-CS1 solution diluted to 1 μg/mL in 0.05 M NaHCO3 (15 mM NaHCO3, 35 mM Na2CO3) pH 9.2. Some wells were not coated with CS1 in order to assess non-specific cell binding (NSB). The plate was then incubated overnight at 4° C.
Following this incubation, the contents of the wells were removed by inverting and blotting the plate. All of the wells were then blocked with 100 μL of 1% BSA in PBS, 0.02% NaN3, for a minimum of one hour at room temperature.
Ramos cells are grown, maintained and labelled in RPMI 1640 culture medium containing 1% BSA. Just prior to running the assay, we added 2′,7′-bis-(2-carboxyethyl)-5 (and -6) carboxyfluorescein acetoxymethyl ester (“BCECF-AM”; Molecular Probes Inc., Eugene, Oreg.; catalog #B-1150) to a final concentration of 2 μM to a culture of Ramos cells (4×10^6 cells/mL). We incubated the cells for 20 minutes at 37° C.
Following labelling, the cells were washed twice in assay buffer (24 mM TRIS, 137 mM NaCl, 2.7 mM KCl, pH 7.4, containing 0.1% BSA and 2 mM glucose) to remove any cations originating from the culture medium. The cells were then resuspended in assay buffer to 4×10^6 cells/mL and 2 mM MnCl2 was added to upregulate VLA4 on the surface of the cells.
Immediately prior to running the assay, we removed the BSA blocking solution from the 96-well plates and washed the wells with 100 μL of assay buffer. We then added to each well 25 μL of test cell adhesion inhibitory compound at 2× the final concentration and 25 μL of the labelled Ramos cells. […] Each concentration of compound was tested in triplicate. The compound and cells are allowed to incubate for 30 minutes at room temperature.

T1 sequence (P13612 34-1032): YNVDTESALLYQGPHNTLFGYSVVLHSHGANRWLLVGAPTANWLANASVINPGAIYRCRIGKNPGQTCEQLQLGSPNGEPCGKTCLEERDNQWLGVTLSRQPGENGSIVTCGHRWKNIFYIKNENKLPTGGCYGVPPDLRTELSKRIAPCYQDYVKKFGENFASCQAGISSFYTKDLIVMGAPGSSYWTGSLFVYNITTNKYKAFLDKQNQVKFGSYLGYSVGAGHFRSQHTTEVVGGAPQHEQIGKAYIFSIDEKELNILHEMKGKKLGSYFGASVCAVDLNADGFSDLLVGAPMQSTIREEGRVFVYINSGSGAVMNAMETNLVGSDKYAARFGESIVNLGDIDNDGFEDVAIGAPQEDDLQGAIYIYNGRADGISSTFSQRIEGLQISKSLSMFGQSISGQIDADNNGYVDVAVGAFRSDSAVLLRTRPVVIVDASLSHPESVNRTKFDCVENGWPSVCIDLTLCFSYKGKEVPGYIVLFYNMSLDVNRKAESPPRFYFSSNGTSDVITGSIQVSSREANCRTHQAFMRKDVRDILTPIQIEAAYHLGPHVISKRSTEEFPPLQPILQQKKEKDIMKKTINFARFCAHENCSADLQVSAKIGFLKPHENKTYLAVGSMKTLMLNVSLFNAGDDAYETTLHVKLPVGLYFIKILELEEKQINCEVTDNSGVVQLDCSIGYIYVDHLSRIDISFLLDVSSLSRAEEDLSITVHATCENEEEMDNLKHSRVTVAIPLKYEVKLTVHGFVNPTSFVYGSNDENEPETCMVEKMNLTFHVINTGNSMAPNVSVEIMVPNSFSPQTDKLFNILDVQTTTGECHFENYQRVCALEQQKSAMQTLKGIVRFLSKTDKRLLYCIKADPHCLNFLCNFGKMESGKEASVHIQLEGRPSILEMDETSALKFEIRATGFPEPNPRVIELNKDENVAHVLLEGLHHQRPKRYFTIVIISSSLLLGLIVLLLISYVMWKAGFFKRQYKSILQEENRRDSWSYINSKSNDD
T1 sequence (P05556 21-798): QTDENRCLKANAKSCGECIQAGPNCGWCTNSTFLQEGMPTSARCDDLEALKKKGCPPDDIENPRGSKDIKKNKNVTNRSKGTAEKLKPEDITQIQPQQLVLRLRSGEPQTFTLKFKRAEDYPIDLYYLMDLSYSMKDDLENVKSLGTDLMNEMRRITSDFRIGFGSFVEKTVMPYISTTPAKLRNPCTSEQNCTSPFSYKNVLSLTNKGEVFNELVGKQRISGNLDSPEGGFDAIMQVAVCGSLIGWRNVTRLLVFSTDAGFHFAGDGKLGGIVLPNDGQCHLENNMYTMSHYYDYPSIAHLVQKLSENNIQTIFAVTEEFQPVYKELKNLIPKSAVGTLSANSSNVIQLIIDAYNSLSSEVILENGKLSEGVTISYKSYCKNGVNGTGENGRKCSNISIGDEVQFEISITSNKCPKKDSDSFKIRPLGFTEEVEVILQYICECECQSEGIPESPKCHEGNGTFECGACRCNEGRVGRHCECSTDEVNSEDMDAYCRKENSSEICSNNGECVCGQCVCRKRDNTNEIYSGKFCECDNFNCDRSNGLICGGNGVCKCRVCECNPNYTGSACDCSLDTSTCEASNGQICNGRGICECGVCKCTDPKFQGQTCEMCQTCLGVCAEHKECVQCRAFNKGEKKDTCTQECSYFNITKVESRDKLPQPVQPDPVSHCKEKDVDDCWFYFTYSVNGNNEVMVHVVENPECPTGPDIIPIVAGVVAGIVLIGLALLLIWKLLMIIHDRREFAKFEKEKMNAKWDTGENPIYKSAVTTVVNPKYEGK

| SMILES | IC50 |
| --- | --- |
| Cc1ccccc1NC(=O)Nc1ccc(CC(=O)N[C@@H](CC(C)C)C(=O)N[C@@H](CC(=O)O)C(=O)N[C@H](C(=O)N2CCC[C@H]2C(=O)N[C@@H](CO)C(=O)N[C@H](C(=O)O)[C@@H](C)O)C(C)C)cc1 [Compound 338] ({NH(2-Me-phenyl)-CO}-[X1]LDVPST-OH) | < 0.05 µM |

Same assay, conditions: binding of BCECF-labelled Ramos cells to BSA-CS1 coated wells, 2 mM MnCl2; read-out: IC50

| SMILES | IC50 |
| --- | --- |
| CC(C)CC(NC(=O)CCc1ccc(O)cc1)C(=O)NC(CC(=O)O)C(=O)NCC1CCCCC1 (centres unmarked) [Compound 14] | > 10 µM |
| Cc1ccccc1NC(=O)Nc1ccc(CC(=O)N2CCC[C@H]2C(=O)N[C@@H](CC(=O)O)C(=O)N[C@H](C(N)=O)C(C)C)cc1 [Compound 243] | < 0.05 µM |
| COC(=O)C1CCCN1C(=O)C(NC(=O)C(CC(=O)O)NC(=O)C(CC(C)C)NC(=O)Cc1ccccc1)C(C)C (centres unmarked) [Compound 35] | 0.05 to 10 µM |
| Cc1ccccc1NC(=O)Nc1ccc(CC(=O)N[C@@H](CCC(=O)O)C(=O)N[C@@H](CC(=O)O)C(=O)N[C@H](CC(N)=O)C(N)=O)cc1 [Compound 270] | < 0.05 µM |
| CCC(C)C(NC(=O)CCc1ccc(O)cc1)C(=O)NC(CC(=O)O)C(=O)NCC(C)C (centres unmarked) [Compound 17] | > 10 µM |
| Cc1ccccc1NC(=O)Nc1ccc(CC(=O)N[C@@H](CO)C(=O)N[C@@H](CC(=O)O)C(=O)N[C@H](C(N)=O)C(C)C)cc1 [Compound 277] | < 0.05 µM |
| CC(C)C[C@@H](NC(=O)Cc1ccc(NC(=O)Nc2ccccc2)cc1)C(=O)N[C@@H](CC(=O)O)C(=O)N[C@H](C(=O)N1CCC[C@H]1C(N)=O)C(C)C [Compound 209] ({NHPh-CO}-[X1][dL]DVP-NH2) | 0.05 to 10 µM |
| CC(C)CC(NC(=O)C(Cc1ccc(O)cc1)NC(=O)OC(C)(C)C)C(=O)NC(CC(=O)O)C(=O)NC(C(=O)O)C(C)C (centres unmarked) [Compound 66] (Boc-YLDV-OH; configuration not given here) | > 10 µM |
| Cc1ccc2nc(C(=O)N[C@@H](CC(C)C)C(=O)N[C@@H](CC(=O)O)C(=O)N[C@H](C(=O)O)C(C)C)[nH]c(=O)c2c1 [Compound 370] | > 10 µM |
| Cc1ccccc1NC(=O)Nc1ccc(CC(=O)N[C@H](CC(C)C)C(=O)N[C@@H](CC(=O)O)C(=O)N[C@H](CCC(=O)O)C(N)=O)cc1 [Compound 294] | < 0.05 µM |
| CSCC[C@H](NC(=O)Cc1ccc(NC(=O)Nc2ccccc2C)cc1)C(=O)N[C@@H](CCC(=O)O)C(=O)N[C@@H](CC(=O)O)C(N)=O [Compound 308] | < 0.05 µM |
| CSCC[C@H](NC(=O)[C@H](CC(=O)O)NC(=O)[C@@H](NC(=O)Cc1ccc(NC(=O)Nc2ccccc2C)cc1)[C@@H](C)O)C(N)=O [Compound 258] | < 0.05 µM |
| CC(C)CC(NC(=O)CCCc1ccccc1)C(=O)NC(CC(=O)O)C(=O)NCC1CCCCC1 (centres unmarked) [Compound 25] | > 10 µM |
| Cc1ccccc1NC(=O)Nc1ccc(CC(=O)N[C@@H](CO)C(=O)N[C@@H](CC(=O)O)C(=O)N[C@H](CC(C)C)C(N)=O)cc1 [Compound 278] | < 0.05 µM |
| Cc1ccccc1NC(=O)Nc1ccc(CC(=O)N[C@@H](CCC(=O)O)C(=O)N[C@@H](CC(=O)O)C(=O)N[C@H](C(N)=O)[C@@H](C)O)cc1 [Compound 268] | < 0.05 µM |
| CC(C)C[C@H](NC(=O)Cc1ccc(NC(=O)Nc2ccccc2)cc1)C(=O)N[C@@H](CC(=O)O)C(=O)N[C@@H](C(=O)N1CCC[C@H]1C(N)=O)C(C)C [Compound 211] ({NHPh-CO}-[X1]LD[dV]P-NH2) | 0.05 to 10 µM |
| Cc1ccccc1NC(=O)Nc1ccc(CC(=O)N[C@@H](CCC(=O)O)C(=O)N[C@@H](CC(=O)O)C(=O)N[C@@H](CCC(=O)O)C(N)=O)cc1 [Compound 267] | < 0.05 µM |
| Cc1ccccc1NC(=O)Nc1ccc(CC(=O)N[C@H](CC(C)C)C(=O)N[C@@H](CC(=O)O)C(=O)N[C@H](CC(C)C)C(N)=O)cc1 [Compound 289] | < 0.05 µM |
| CC(C)C[C@H](NC(=O)Cc1ccc(NC(=O)Nc2ccccc2)cc1)C(=O)N[C@H](CC(=O)O)C(=O)N[C@H](C(=O)N1CCC[C@H]1C(N)=O)C(C)C [Compound 210] ({NHPh-CO}-[X1]L[dD]VP-NH2) | 0.05 to 10 µM |

| SMILES | IC50 |
| --- | --- |
| CC(C)C[C@H](NC(=O)c1cncc(C#Cc2ccccc2)c1)C(=O)N[C@@H](CC(=O)O)C(=O)N[C@H](C(=O)O)C(C)C [Compound 372] | > 10 µM |
| CSCC[C@H](NC(=O)[C@H](CC(=O)O)NC(=O)[C@@H](CC(C)C)NC(=O)Cc1ccc(NC(=O)Nc2ccccc2C)cc1)C(N)=O [Compound 292] | < 0.05 µM |
| Cc1ccccc1NC(=O)Nc1ccc(CC(=O)N[C@@H](CC(C)C)C(=O)N[C@@H](CC(=O)O)C(=O)N[C@H](CC(N)=O)C(N)=O)cc1 [Compound 237] | < 0.05 µM |
| COC(=O)[C@@H](NC(=O)[C@H](CC(=O)O)N1CCC(NC(=O)CCc2ccc(O)cc2)C1=O)C(C)C (some centres unmarked) [Compound 335] | > 10 µM |
| CC(C)C[C@H](NC(=O)Cc1ccc(NC(=O)Nc2ccccc2)cc1)C(=O)N[C@@H](CC(=O)O)C(=O)N[C@H](C(=O)N1CCC[C@H]1C(N)=O)C(C)C [Compound 208] ({NHPh-CO}-[X1]LDVP-NH2) | < 0.05 µM |
| Cc1ccccc1NC(=O)Nc1ccc(CC(=O)N[C@@H](CCC(=O)O)C(=O)N[C@@H](CC(=O)O)C(=O)N[C@@H](CC(=O)O)C(N)=O)cc1 [Compound 263] | < 0.05 µM |
| CCC(C)C(NC(=O)C(CC(=O)O)NC(=O)C(CC(C)C)NC(=O)Cc1ccccc1)C(N)=O (stereo not drawn) [Compound 53] (PhAc-Leu-Asp-Ile-NH2; configuration not given here) | > 10 µM |
| Cc1ccccc1NC(=O)Nc1ccc(CC(=O)N[C@@H](CCC(N)=O)C(=O)N[C@@H](CC(=O)O)C(=O)N[C@@H](Cc2c[nH]c3ccccc23)C(N)=O)cc1 [Compound 306] | < 0.05 µM |
| CCCCC(NC(=O)C(NC(=O)C(CC(=O)O)NC(=O)C(CC(C)C)NC(=O)c1ccc2ccccc2n1)C(C)C)C(=O)O (centres unmarked) [Compound 44] (Quinaldoyl-LDV[Nle]-OH; configuration not given here) | 0.05 to 10 µM |
| CC(C)C[C@H](NC(=O)CCCCc1ccccc1)C(=O)N[C@@H](CC(=O)O)C(=O)N[C@H](C(=O)O)C(C)C [Compound 98] | > 10 µM |
| CC(C)C[C@H](NC(=O)CC1CC2CCC1C2)C(=O)N[C@@H](CC(=O)O)C(=O)N[C@H](C(=O)O)C(C)C (some centres unmarked) [Compound 390] | > 10 µM |
| CCC(C)C(NC(=O)C(CC(=O)O)NC(=O)C(CC(C)C)NC(=O)c1ccc2ccccc2n1)C(=O)NC (centres unmarked) [Compound 57] | 0.05 to 10 µM |
| Cc1ccccc1NC(=O)Nc1ccc(CC(=O)N2CCC[C@H]2C(=O)N[C@@H](CC(=O)O)C(=O)N[C@H](CCC(=O)O)C(N)=O)cc1 [Compound 249] | < 0.05 µM |
| Cc1ccccc1NC(=O)Nc1ccc(CC(=O)N[C@@H](CCC(=O)O)C(=O)N[C@@H](CC(=O)O)C(=O)N[C@H](CCC(=O)O)C(N)=O)cc1 [Compound 271] | < 0.05 µM |
| CC(C)CC(NC(=O)Cc1ccc(NC(=O)Nc2ccccc2)cc1)C(=O)NC(CC(=O)O)C(=O)NC(C(=O)N1CCCC1C(N)=O)C(C)C (centres unmarked) [Compound 201] ({NHPh-CO}-[X1]LDVP-NH2; configuration not given here) | 0.05 to 10 µM |
| CSCC[C@H](NC(=O)Cc1ccc(NC(=O)Nc2ccccc2C)cc1)C(=O)N[C@@H](CC(=O)O)C(=O)N[C@H](C(N)=O)[C@@H](C)O [Compound 224] | < 0.05 µM |
| CCCC(NC(=O)C(CC(=O)O)NC(=O)C(CC(C)C)NC(=O)Cc1ccccc1)C(=O)NC (stereo not drawn) [Compound 51] (PhAc-Leu-Asp-[Nva]-NHMe; configuration not given here) | > 10 µM |
| Cc1ccccc1NC(=O)Nc1ccc(CC(=O)N[C@@H](CCC(=O)O)C(=O)N[C@@H](CC(=O)O)C(=O)N[C@H](CO)C(N)=O)cc1 [Compound 273] | < 0.05 µM |
